Data published in patent US20170209544A1, “A PEPTIDE THERAPY TO COUNTERACT INSULIN RESISTANCE AND TYPE 2 DIABETES” (The Regents of the University of California, priority 2014, published 2017).
Where no end group is shown, it is not given here.

Legend:
[1] = test system: peritoneal macrophages; test: qPCR of inflammatory genes in cultured peritoneal macrophages; type: cell-based, mice
Description: Peritoneal macrophages were isolated after thioglycollate (3% solution in water) stimulation as described. Isolated macrophages were cultured in DMEM with 10% FBS for 48 hours with daily medium changes. Cells were then serum-starved overnight in DMEM with low FBS (0.5%) and then exposed to saline, PST (100 nM), or LPS (100 ng/ml) for 4 hours. At the end of incubation, the cultures were subjected to RNA extraction.
(§1) RNA from tissues was extracted using a kit (RNeasy Plus, Qiagen, Valencia, Calif.). After DNase digestion, 200 ng of RNA was transcribed into cDNA in a 20-μl reaction using a High Capacity cDNA Archive kit and this cDNA was amplified. PCR (25-μl reactions) contained 5 μl of cDNA, 2×SYBR Green PCR Master Mix, and 400 nM of each primer. Differences in the threshold cycle number (ΔCt) between the target gene, the housekeeping gene Gapdh and the ribosomal protein gene 36B4 were used to calculate differences in expression. Primer sequences are provided below.
As shown in FIGS. 18A-18H, PST promotes macrophage inflammation and chemotaxis. Peritoneal macrophages were isolated from WT-NCD and KO-NCD after thioglycollate injection. After 4-hr exposure to saline, LPS (100 ng/ml) or PST (100 nM), RNAs were extracted and cDNAs were prepared for qPCR analyses of Chga (FIG. 18A, n=8), iNos (FIG. 18B, n=8), Tnfα (FIG. 18C, n=8), Mcp-1 (FIG. 18D, n=8), IL-6 (FIG. 18E, n=8), IL-12p40 (FIG. 18F, n=8) and iNos genes (FIG. 18G, n=8). (FIG. 18H) Effects of PST on chemotaxis of activated macrophages from NCD-fed C57BL/6J mice (n=5). “*” Denotes comparison between the indicated groups. “*”: P<0.05, “**”: p<0.01, “***”: p<0.001.

[2] = test system: KO-DIO mice; test: Hepatic gene expression in PST-treated KO-DIO mice; type: in vivo; settings: PST 5 μg/g BW for 15 days
Description: as §1
To determine chronic effects, KO-NCD mice were treated with saline, PST (5 μg/g BW), PSTv1 (10 μg/g BW) or PST+PSTv1 for 15 days, fasted for 12 hrs after the last of injection and subjected to (FIG. 14C) GTT (2-way ANOVA: Treatment (Sal vs PST), Time, p<0.0001; Interaction, p<0.05; Treatment (PST vs PSTv1), p<0.0001; Time, p<0.0001; Interaction, p<0.01; n=7). The corresponding AUC is shown in (FIG. 14D). FIG. 14E reports liver glycogen at basal and during clamp in DIO mice (n=6). FIG. 14F reports chronic effects of PST (5 μg/g BW for 15 days) on expression of hepatic gluconeogenic genes (Pepck and G6pase) in DIO mice (n=6). FIG. 14G reports chronic effects of PST (5 μg/g BW for 15 days) on expression of hepatic lipid metabolic (Acc, Ppara, Cpt-1, Acox-1 and Srebp-1) genes in DIO mice (n=6). […]

[3] = test system: WT-NCD mice; test: IP-ITT in WT-NCD mice; type: in vivo; settings: chronic PST 5 μg/g BW for 15 days; WT mice on NCD
Description: For glucose tolerance tests (GTT), glucose (1 mg/g) was injected intraperitoneally (IP-GTT) (at time zero) or gavaged orally (O-GTT) after a 12-hours fast. Tail-vein glucose levels were measured at −30, 0, 15, 30, 60, 90, and 120 minutes. For insulin tolerance tests (ITT), insulin (0.4 mU/g) was injected intraperitoneally and blood glucose levels were measured at the indicated time points. Chronic PST (5 μg/g/day) and PSTv1 (10 μg/day) treatments were carried out for 15 days. For acute treatment, either peptides or saline were injected 30 minutes before glucose or insulin injection. Synergy Software Kaleidagraph Version 4.0 calculated the area under the curve (AUC) for each line curve.
Treatment with the PST variant PSTv1 improves, whereas PST worsens, glucose tolerance and insulin sensitivity in WT-DIO and WT-NCD mice. WT-DIO mice were treated with saline or PSTv1 (10 μg/g BW/day) for 15 days. Weight-matched DIO mice were fasted for 12 hrs and subjected to IP-GTT (2-way ANOVA: Treatment, p<0.0001; Time, p<0.0001; Interaction, p=0.17, n=6, as shown in FIG. 13A) and IP-ITT (2-way ANOVA: Treatment, p<0.0001; Time, p<0.0001; Interaction, p=0.62 n=9, as shown in FIG. 13C) and AUCs for glucose excursions were determined (as shown in FIGS. 13B and 13D). […]

[4] = PST 100 nM, 4 hr, Chga-KO macrophages

## PEGKGEQEHSQQKEEEEEMAVVPQGLFRG-amide (PEGKGEQEHSQQKEEEEEMAVVPQGLFRG-NH2) [PST, Wild-type human pancreastatin, a chromogranin A derived peptide]
[1]; [4]
  expression of IL-6, IL-12p40 and iNos genes: had no effect
  expression of Tnfα and Mcp-1: increased
[1]; macrophage cultures from WT and Chga-KO mice on NCD
  expression of Tnfα, Mcp-1, IL-6, IL-12p40 and iNos: increased
[2]
  lower mRNA levels of Pepck and G6pase in KO-DIO liver: reversed
[2]; liver
  expression of Acox-1 and Cpt-1: increased
[3]
  insulin sensitivity (IP-ITT): induced insulin resistance
